System: Transport facilitation protein genes
Assay: DNA chip mRNA expression in yeast, transport facilitation protein genes (Table 5)
Assay type: cell-based, Saccharomyces cerevisiae S288C
Summary of the method: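 Whole-genome yeast DNA chip hybridization (65° C., >12 h) of Cy-labeled cDNA from S288C cells exposed 2 h at 25° C. to a sub-lethal toxicant dose in YPD; value is intensity relative to chemical-free control.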

Q: How did the “The level of expressed mRNA in the presence of chemical substance/The level of expressed mRNA in the absence of chemical substance” value (yeast gene YHL035C) turn out when C=CC=O [(14), acrolein] was run?
A: Its value is 0.8.

Q: And the “The level of expressed mRNA in the presence of chemical substance/The level of expressed mRNA in the absence of chemical substance” value (yeast gene YHL040C)?
A: The value was 1.1.

Q: What about the “The level of expressed mRNA in the presence of chemical substance/The level of expressed mRNA in the absence of chemical substance” value (yeast gene YHL047C) of the same compound?
A: The value was 0.5.

Q: What about the “The level of expressed mRNA in the presence of chemical substance/The level of expressed mRNA in the absence of chemical substance” value (yeast gene YHR026W) of the same compound?
A: Its value is 1.3.

Q: What about the “The level of expressed mRNA in the presence of chemical substance/The level of expressed mRNA in the absence of chemical substance” value (yeast gene YHR092C) of the same compound?
A: The value was 1.6.

Q: What about the “The level of expressed mRNA in the presence of chemical substance/The level of expressed mRNA in the absence of chemical substance” value (yeast gene YHR094C) of the same compound?
A: The value was 0.6.

Q: What about the “The level of expressed mRNA in the presence of chemical substance/The level of expressed mRNA in the absence of chemical substance” value (yeast gene YHR175W) of the same compound?
A: The value was 0.7.

Q: And the “The level of expressed mRNA in the presence of chemical substance/The level of expressed mRNA in the absence of chemical substance” value (yeast gene YIL006W)?
A: The value was 1.0.

Q: What about the “The level of expressed mRNA in the presence of chemical substance/The level of expressed mRNA in the absence of chemical substance” value (yeast gene YIL022W) of the same compound?
A: The value was 0.6.

Q: What about the “The level of expressed mRNA in the presence of chemical substance/The level of expressed mRNA in the absence of chemical substance” value (yeast gene YIL056W) of the same compound?
A: Its value is 1.0.

Q: What about the “The level of expressed mRNA in the presence of chemical substance/The level of expressed mRNA in the absence of chemical substance” value (yeast gene YIL088C) of the same compound?
A: The value was 1.2.

Q: And the “The level of expressed mRNA in the presence of chemical substance/The level of expressed mRNA in the absence of chemical substance” value (yeast gene YJL034W)?
A: The value was 0.6.

Q: What about the “The level of expressed mRNA in the presence of chemical substance/The level of expressed mRNA in the absence of chemical substance” value (yeast gene YJL212C) of the same compound?
A: The value was 0.8.

Q: And the “The level of expressed mRNA in the presence of chemical substance/The level of expressed mRNA in the absence of chemical substance” value (yeast gene YJL219W)?
A: Its value is 1.1.

Q: And the “The level of expressed mRNA in the presence of chemical substance/The level of expressed mRNA in the absence of chemical substance” value (yeast gene YJR077C)?
A: The value was 0.7.

Q: And the “The level of expressed mRNA in the presence of chemical substance/The level of expressed mRNA in the absence of chemical substance” value (yeast gene YJR106W)?
A: Its value is 0.9.

Q: What about the “The level of expressed mRNA in the presence of chemical substance/The level of expressed mRNA in the absence of chemical substance” value (yeast gene YJR121W) of the same compound?
A: Its value is 0.7.

Q: What about the “The level of expressed mRNA in the presence of chemical substance/The level of expressed mRNA in the absence of chemical substance” value (yeast gene YKL016C) of the same compound?
A: The value was 1.6.

Q: And the “The level of expressed mRNA in the presence of chemical substance/The level of expressed mRNA in the absence of chemical substance” value (yeast gene YKL146W)?
A: Its value is 1.0.

Q: What about the “The level of expressed mRNA in the presence of chemical substance/The level of expressed mRNA in the absence of chemical substance” value (yeast gene YKL221W) of the same compound?
A: Its value is 1.4.

Q: What about the “The level of expressed mRNA in the presence of chemical substance/The level of expressed mRNA in the absence of chemical substance” value (yeast gene YKR039W) of the same compound?
A: Its value is 1.2.

Q: What about the “The level of expressed mRNA in the presence of chemical substance/The level of expressed mRNA in the absence of chemical substance” value (yeast gene YKR067W) of the same compound?
A: The value was 1.3.

Q: And the “The level of expressed mRNA in the presence of chemical substance/The level of expressed mRNA in the absence of chemical substance” value (yeast gene YLL028W)?
A: Its value is 0.7.

Q: And the “The level of expressed mRNA in the presence of chemical substance/The level of expressed mRNA in the absence of chemical substance” value (yeast gene YLR081W)?
A: Its value is 1.0.

Q: What about the “The level of expressed mRNA in the presence of chemical substance/The level of expressed mRNA in the absence of chemical substance” value (yeast gene YLR092W) of the same compound?
A: Its value is 1.4.

Q: And the “The level of expressed mRNA in the presence of chemical substance/The level of expressed mRNA in the absence of chemical substance” value (yeast gene YLR295C)?
A: Its value is 1.2.

Q: What about the “The level of expressed mRNA in the presence of chemical substance/The level of expressed mRNA in the absence of chemical substance” value (yeast gene YLR348C) of the same compound?
A: Its value is 1.0.

Q: And the “The level of expressed mRNA in the presence of chemical substance/The level of expressed mRNA in the absence of chemical substance” value (yeast gene YLR378C)?
A: The value was 0.4.

Q: And the “The level of expressed mRNA in the presence of chemical substance/The level of expressed mRNA in the absence of chemical substance” value (yeast gene YMR011W)?
A: Its value is 0.6.

Q: And the “The level of expressed mRNA in the presence of chemical substance/The level of expressed mRNA in the absence of chemical substance” value (yeast gene YMR162C)?
A: The value was 1.0.

Q: And the “The level of expressed mRNA in the presence of chemical substance/The level of expressed mRNA in the absence of chemical substance” value (yeast gene YMR203W)?
A: Its value is 0.7.

Q: What about the “The level of expressed mRNA in the presence of chemical substance/The level of expressed mRNA in the absence of chemical substance” value (yeast gene YNL055C) of the same compound?
A: Its value is 0.9.

Q: What about the “The level of expressed mRNA in the presence of chemical substance/The level of expressed mRNA in the absence of chemical substance” value (yeast gene YNL259C) of the same compound?
A: The value was 1.4.

Q: And the “The level of expressed mRNA in the presence of chemical substance/The level of expressed mRNA in the absence of chemical substance” value (yeast gene YNR072W)?
A: The value was 1.0.

Q: What about the “The level of expressed mRNA in the presence of chemical substance/The level of expressed mRNA in the absence of chemical substance” value (yeast gene YOL119C) of the same compound?
A: Its value is 2.4.

Q: And the “The level of expressed mRNA in the presence of chemical substance/The level of expressed mRNA in the absence of chemical substance” value (yeast gene YOL156W)?
A: Its value is 0.9.

Q: And the “The level of expressed mRNA in the presence of chemical substance/The level of expressed mRNA in the absence of chemical substance” value (yeast gene YOL163W)?
A: The value was 1.2.

Q: And the “The level of expressed mRNA in the presence of chemical substance/The level of expressed mRNA in the absence of chemical substance” value (yeast gene YOR035C)?
A: The value was 0.9.

Q: And the “The level of expressed mRNA in the presence of chemical substance/The level of expressed mRNA in the absence of chemical substance” value (yeast gene YOR130C)?
A: The value was 1.3.

Q: And the “The level of expressed mRNA in the presence of chemical substance/The level of expressed mRNA in the absence of chemical substance” value (yeast gene YOR153W)?
A: The value was 0.3.

Q: What about the “The level of expressed mRNA in the presence of chemical substance/The level of expressed mRNA in the absence of chemical substance” value (yeast gene YOR270C) of the same compound?
A: Its value is 0.7.

Q: And the “The level of expressed mRNA in the presence of chemical substance/The level of expressed mRNA in the absence of chemical substance” value (yeast gene YOR273C)?
A: Its value is 0.5.

Q: And the “The level of expressed mRNA in the presence of chemical substance/The level of expressed mRNA in the absence of chemical substance” value (yeast gene YOR316C)?
A: The value was 1.0.

Q: And the “The level of expressed mRNA in the presence of chemical substance/The level of expressed mRNA in the absence of chemical substance” value (yeast gene YOR328W)?
A: Its value is 0.8.

Q: And the “The level of expressed mRNA in the presence of chemical substance/The level of expressed mRNA in the absence of chemical substance” value (yeast gene YOR332W)?
A: The value was 1.1.

Q: And the “The level of expressed mRNA in the presence of chemical substance/The level of expressed mRNA in the absence of chemical substance” value (yeast gene YOR348C)?
A: The value was 1.2.

Q: What about the “The level of expressed mRNA in the presence of chemical substance/The level of expressed mRNA in the absence of chemical substance” value (yeast gene YPL036W) of the same compound?
A: Its value is 0.6.

Q: And the “The level of expressed mRNA in the presence of chemical substance/The level of expressed mRNA in the absence of chemical substance” value (yeast gene YPL134C)?
A: Its value is 1.4.

Q: And the “The level of expressed mRNA in the presence of chemical substance/The level of expressed mRNA in the absence of chemical substance” value (yeast gene YPL224C)?
A: Its value is 1.4.

Q: And the “The level of expressed mRNA in the presence of chemical substance/The level of expressed mRNA in the absence of chemical substance” value (yeast gene YPL265W)?
A: Its value is 1.1.

Q: What about the “The level of expressed mRNA in the presence of chemical substance/The level of expressed mRNA in the absence of chemical substance” value (yeast gene YPL271W) of the same compound?
A: Its value is 1.3.

Q: What about the “The level of expressed mRNA in the presence of chemical substance/The level of expressed mRNA in the absence of chemical substance” value (yeast gene YPR124W) of the same compound?
A: Its value is 0.4.

Q: And the “The level of expressed mRNA in the presence of chemical substance/The level of expressed mRNA in the absence of chemical substance” value (yeast gene YPR192W)?
A: Its value is 0.7.

Q: What about the “The level of expressed mRNA in the presence of chemical substance/The level of expressed mRNA in the absence of chemical substance” value (yeast gene YPR194C) of the same compound?
A: The value was 1.0.
